Source: patent publication US11440906B2, “Biguanide derivatives and their rearrangement products for use in the treatment of cancer” (CENTRE NATIONAL DE LA RECHERCHE SCIENTIFIQUE, priority 2017, dated 2022)
Read-outs that look alike come from different tables or passages of the source.

Columns and labels:
A375 Sensitive cells = assay: Viability test, trypan blue exclusion, A375 Sensitive cells; type: cell-based, human; details: for viability at 5 µM / viability at 10 µM: viable cells as percentage of DMSO control
Procedure, shortened: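 A375 (B-Raf, CDKN2A, PTEN mutant) cells were exposed to compounds at 5.0 or 10 μM for 24 or 48 hr; CRO15 also at 0.5–50 μM for 48 hr or 5 μM for 2–48 hr; DMSO control. Viable cells were counted by trypan blue exclusion, as % of control. Three experiments in triplicate.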

patient melanoma cells = assay: Viability test with CRO15, patient melanoma cells; type: cell-based, human; details: 5 μM, 48 hours; FIG. 1D
Procedure: (§1) Fresh sterile tissues were obtained from surgical waste from patients diagnosed with metastatic melanoma at the Nice CHU hospital. Epidermal cell suspensions were obtained from foreskins of Caucasian children by overnight digestion in phosphate-buffered saline containing 0.5% dispase grade II at 4° C., followed by a 20 min digestion with 0.05% trypsin-0.02% EDTA in phosphate-buffered saline (V/V) at 37° C. Human primary melanocytes were grown in MCDB153 medium supplemented with 2% FCS, 0.4 μg/ml hydrocortisone, 5 μg/ml insulin, 16 nM phorbol-12 myristate 13-acetate, 1 ng/ml basic fibroblast growth factor, 10 μg/ml bovine pituitary extract and penicillin/streptomycin (100 U/ml/50 μg/ml). […]
(§2) For trypan blue staining, […] of cells (melanoma and normal human cells) were aseptically transferred to a 1.5 mL clear Eppendorf tube and incubated for 3 min at room temperature with an equal volume of 0.4% trypan blue solution. Viable cells were counted and the results are expressed as the percentage of the value of control cells. […]
(§3) Different melanoma cell lines with various mutations, patient cells with various mutations and normal human cells, were treated with 5 μM of CRO15 for 48 hours or DMSO (Control). At the end of stimulation, viable cells were counted using the trypan blue dye exclusion method. […]

normal human cells = assay: Viability test with CRO15, normal human cells; type: cell-based; details: 5 μM, 48 hours; FIG. 1E
Procedure: as §1, §2, §3

Melanoma cell line DR6 = assay: Viability test on double resistant cells to BRAF and MEK inhibitors; type: cell-based; details: 5 μM or 10 μM, 24 hours; FIG. 5
Procedure: For trypan blue staining, […] of cells (melanoma and normal human cells) were aseptically transferred to a 1.5 mL clear Eppendorf tube and incubated for 3 min at room temperature with an equal volume of 0.4% trypan blue solution. Viable cells were counted and the results are expressed as the percentage of the value of control cells. All the experiments are performed 3 times in triplicate.
Melanoma cell line DR6 resistant cells to B-Raf inhibitor (Vemurafenib=PLX4032) and to MEK inhibitor (Cobimetinib) were treated with DMSO (control), with 5 μM or 10 μM of CRO15 or with a combination of 1 μM of vemurafenib and 0.5 μM of cobimetinib. After 24 hours of stimulation, viable cells were counted using the trypan blue dye exclusion method. The results are normalized as percentages compare to the control. Error bars represents ±SEM of triplicate.

murine melanoma BP cells = assay: Murine melanoma BP cells allografted into C57BL6 mice; type: in vivo, C57BL6/J mice; details: BP cells allograft, immunocompetent C57BL/6, 0.7 mg/mouse/day intraperitoneal; FIG. 7A
Procedure: In Vivo Murine Cancer Model Animal experiments were carried out in accordance with the Declaration of Helsinki and were approved by a local ethical committee CIEPAL (Comite Institutionnel d'Ethique Pour l'Animal de Laboratoire-Azur). Female C57BL6/J mice were obtained at 5 weeks of age from Envigo Laboratory (Gannat, France). Mice were inoculated subcutaneously with BP melanoma cells (1×10^6 cells/mouse). After tumor apparition (+5 days), animals received intraperitoneal injection of Labrafil (vehicle) or CRO15 (0.7 mg/mouse/day). The growth tumor curves were determined by measuring the tumor volume using the equation V=(L*W2)/2, (V=tumor volume, W=tumor width, L=tumor length). At the end of the experiment, mice were euthanized by cervical dislocation.

In the case of `Nc1nc(Nc2ccccc2SSc2ccccc2Nc2nc(N)nc(C(Cl)(Cl)Cl)n2)nc(C(Cl)(Cl)Cl)n1` [CRO15, N2,N2′-(disulfanediylbis(2,1-phenylene))bis(6-(trichloromethyl)-1,3,5-triazine-2,4-diamine)], the “decrease of the viability compared with PLX4032” value (A375 Sensitive cells; 5 μM each, 48 hr, FIG. 1A) is reported as “more important with CRO15 than with PLX4032”, the “cell viability of A375 S cells, kinetic” value (A375 Sensitive cells; 5 μM, 2 hr to 48 hr, FIG. 1A) is reported as “induces a decrease of the viability of melanoma cells” and the “cell viability, A375 sensitive melanoma cells” value (A375 Sensitive cells; 5 μM, 48 hr, FIG. 4A) is reported as “induces a decrease of the cell viability”. For the same compound, the “dose-response on melanoma cells viability” value (A375 Sensitive cells; 0.5-50 μM, 48 hr, FIG. 1B) was “dose-response relationship”, the viability at 5 µM (A375 Sensitive cells; Homo sapiens, A-375, 5 μM, 24 h, read-out: Viab A375 5 μM/ 24 h) was 36% and the viability at 5 µM (A375 Sensitive cells; Homo sapiens, A-375, 5 μM, 48 h, read-out: Viab A375 5 μM/ 48 h) was 27%. The viability at 10 µM (A375 Sensitive cells; Homo sapiens, A-375, 24 h, read-out: Viab A375 10 μM/ 24 h) was 23%, the viability at 10 µM (A375 Sensitive cells; Homo sapiens, A-375, 48 h, read-out: Viab A375 10 μM/ 48 h) was 2.6% and the IC50 (A375 Sensitive cells; Homo sapiens, A-375, A375 Sensitive cells, 48 hr, read-out: IC50 of CRO15) was 3.75 µM. The “viability of patient melanoma cells” value (patient melanoma cells) was “induces a decrease of the viability”, the “viability of normal cells (toxicity)” value (normal human cells) was “not toxic for normal cells” and the “cell viability of DR6 cells” value (Melanoma cell line DR6) was “induces a decrease of the cell viability”. For the same compound, the “tumor growth (tumor volume)” value (murine melanoma BP cells) was “no tumor growth”.
